Data reported in ChEMBL document CHEMBL4052726, “Design, synthesis, and biological evaluation of aryl N-methoxyamide derivatives as GPR119 agonists” (Bioorg Med Chem Lett, 2017).
Activity calls are given as the source filed them. The rule behind the calls is not given here.

How the values were obtained:
[1] = biological target: T1, Glucose-dependent insulinotropic receptor (Homo sapiens) (UniProt Q8TDV5); test: Activation of human GPR119 expressed in CHOK1 cells harboring CRE-luciferase at 1 uM after 6 hrs by luciferase reporter gene assay relative to GSK1292263; format: functional, cell-based
T1 sequence (whole entry): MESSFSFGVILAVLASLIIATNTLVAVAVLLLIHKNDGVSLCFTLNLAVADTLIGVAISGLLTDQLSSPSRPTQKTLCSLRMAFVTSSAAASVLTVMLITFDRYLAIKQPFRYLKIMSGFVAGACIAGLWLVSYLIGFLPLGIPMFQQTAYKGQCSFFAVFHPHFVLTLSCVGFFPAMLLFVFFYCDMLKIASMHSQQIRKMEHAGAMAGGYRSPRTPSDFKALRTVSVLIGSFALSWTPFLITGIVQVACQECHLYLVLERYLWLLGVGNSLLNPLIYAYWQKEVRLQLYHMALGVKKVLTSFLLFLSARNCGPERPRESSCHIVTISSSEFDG

[2] = biological target: T2, Glucose-dependent insulinotropic receptor (Homo sapiens, UniProt Q8TDV5); test: Agonist activity at human GPR119 expressed in CHOK1 cells harboring CRE-luciferase after 6 hrs by luciferase reporter gene assay; format: functional, cell-based
T2 sequence (Q8TDV5 whole entry): T1 sequence (whole entry)

Mus musculus = test: Decrease in plasma glucose AUC in C57BL/6 mouse at 30 to 50 mg/kg administered orally followed by glucose challenge after 30 mins by OGTT; format: functional, organism-based
[3] = biological target: T1, Glucose-dependent insulinotropic receptor (Homo sapiens); test: Agonist activity at GPR119 in human NCI-H716 cells assessed as increase in forskolin-induced GLP-1 secretion by ELISA; format: cell-based

Row | Compound | Activity [1] [%] | EC50 [2] [µM] | Activity (Mus musculus) | Activity [3]
1 | CON(C)C(=O)c1ccc(-c2ccc(OCC3CCN(C(=O)OC(C)C)CC3)cn2)cc1F | 96 | 0.092 |  | 
2 | CC(C)(C)OC(=O)N1CCC(COc2ccc(-c3ccc(C(=O)NOCc4ccccc4)cc3)nc2)CC1 | 69 |  |  | 
3 | CCc1cnc(N2CCC(N(C)c3ncnc4c(-c5ccc(C(=O)NOCc6ccccc6)cc5)csc34)CC2)nc1 | 41 |  |  | 
4 | CON(C)C(=O)c1ccc(-c2ccc(OCC3CCN(C(=O)OC(C)C)CC3)cn2)cc1 | 80 | 0.155 |  | 
5 | CONC(=O)c1ccc(-c2csc3c(N(C)C4CCN(C(=O)OC(C)(C)C)CC4)ncnc23)cc1 | 82 |  |  | 
6 | CON(C)C(=O)c1ccc(-c2csc3c(OC4CCN(C(=O)OC(C)(C)C)CC4)ncnc23)cc1 | 100 | 0.064 |  | 
7 | CON(C)C(=O)c1ccc(-c2ccc(OCC3CCN(C(=O)OC(C)(C)C)CC3)cn2)cc1F | 114 | 0.073 |  | 
8 | CCc1cnc(N2CCC(COc3ccc(-c4ccc(C(=O)N(C)OC)c(F)c4)nc3)CC2)nc1 | 100 | 0.077 | Active | Active
9 | CN(c1ncnc2c(-c3ccc(C(=O)NOCc4ccccc4)cc3)csc12)C1CCN(C(=O)OC(C)(C)C)CC1 | 81 | 0.083 |  | 
10 | CCc1cnc(N2CCC(Oc3ncnc4c(-c5ccc(C(=O)N(C)OC)c(F)c5)csc34)CC2)nc1 | 100 | 0.105 |  | 
11 | CCc1cnc(N2CCC(N(C)c3ncnc4c(-c5ccc(C(=O)N(C)OC)c(F)c5)csc34)CC2)nc1 | 81 |  |  | 
12 | CCONC(=O)c1ccc(-c2csc3c(N(C)C4CCN(C(=O)OC(C)(C)C)CC4)ncnc23)cc1 | 73 |  |  | 
13 | CON(C)C(=O)c1ccc(-c2csc3c(N(C)C4CCN(C(=O)OC(C)(C)C)CC4)ncnc23)cc1F | 87 | 0.053 |  | 
14 | CON(C)C(=O)c1ccc(-c2ccc(OCC3CCN(C(=O)OC(C)(C)C)CC3)cn2)cc1 | 106 | 0.171 |  | 
15 | CON(C)C(=O)c1ccc(-c2csc3c(N(C)C4CCN(C(=O)OC(C)C)CC4)ncnc23)cc1 | 82 | 0.156 |  | 
16 | CCc1cnc(N2CCC(COc3ccc(-c4ccc(C(=O)N(C)OC)cc4)nc3)CC2)nc1 | 95 | 0.319 |  | 
17 | CC(C)OC(=O)N1CCC(N(C)c2ncnc3c(-c4ccc(C(=O)NOCc5ccccc5)cc4)csc23)CC1 | 53 |  |  | 
18 | CON(C)C(=O)c1ccc(-c2csc3c(OC4CCN(C(=O)OC(C)(C)C)CC4)ncnc23)cc1F | 88 | 0.057 |  | 
19 | CC(C)(C)OC(=O)N1CCC(COc2ccc(-c3ccc(C(=O)N4CCCCO4)cc3)nc2)CC1 | 73 | 0.321 |  | 
20 | CON(C)C(=O)c1ccc(-c2csc3c(N(C)C4CCN(C(=O)OC(C)(C)C)CC4)ncnc23)cc1 | 105 | 0.098 |  | 
21 | CCc1cnc(N2CCC(Oc3ncnc4c(-c5ccc(C(=O)N(C)OC)cc5)csc34)CC2)nc1 | 82 | 0.199 |  | 
22 | CON(C)C(=O)c1ccc(-c2csc3c(N(C)C4CCN(C(=O)OC(C)C)CC4)ncnc23)cc1F | 90 | 0.067 |  | 
23 | CCc1cnc(N2CCC(N(C)c3ncnc4c(-c5ccc(C(=O)N(C)OC)cc5)csc34)CC2)nc1 | 80 |  |  | 
24 | CN(c1ncnc2c(-c3ccc(C(=O)N4CCCCO4)cc3)csc12)C1CCN(C(=O)OC(C)(C)C)CC1 | 66 |  |  | 
